Measurements published in PMC7395068, “The evolution of strategies to minimise the risk of human drug-induced liver injury (DILI) in drug discovery and development” (Archives of Toxicology, 2020).
Where two headings read alike, the source gives them in different places. Blank lines part the entries; values can stand above or below the compound they belong to.

Columns and labels:
[1] = cited from earlier work
[2] = cited from earlier work; remark: listed apart in the source
HepG2 cells [3] = details: cited from earlier work
RMPCC's = details: cited from earlier work
[4] = test system: primary human hepatocytes, NIH3T3 fibroblasts, BSEP, CYP3A4; details: cited from earlier work; for Cellular toxicity (3T3 cells) / Combined Assay / GSH adduct HML / Hepatocyte cellular toxicity / MitoTox 3T3 / TDI CYP3A4 / hBSEP inhibition: In vitro Assay, ref Schadt 2015
human hepatocytes = details: In vitro Assay; ref Xu 2008; cited from earlier work
hu-MPCC = details: cited from earlier work
[5] = test system: isolated mouse liver mitochondria; details: cited from earlier work
hLiMTs [6] = assay: Combined HCI (HCS) and cellular ATP 3D assay in hLiMTs; details: for AC50 / minimal effective concentration: Homo sapiens
HepG2 cells [7] = details: cited from earlier work; remark: listed apart in the source
HepG2 = test system: HepG2; set-up: method as in Albrecht 2019; details: In vitro Assay; ref Albrecht 2019; cited from earlier work
PHH [8] = details: In vitro Assay; ref Albrecht 2019; cited from earlier work
[9] = Plasma free fraction (fu) and unbound Cmax (Cmax,u); type: in vitro ADME, human; details: unbound plasma Cmax
rBsep = details: In vitro Assay; ref Dawson 2012; cited from earlier work
[10] = test system: HepG2 C3A spheroid, BSEP, Glu/Gal in HepG2 cells, bioactivation; details: cited from earlier work
[11] = test system: THLE-Null and THLE-3A4 cells; details: In vitro Assay; ref Gustafsson 2014; cited from earlier work
hLiMTs [12] = details: cited from earlier work
PHH [13] = details: cited from earlier work
[14] = test system: HepG2 cells, primary human hepatocytes; details: In vitro Assay; ref Garside 2014; cited from earlier work
[15] = ref Chen 2011; cited from earlier work
[16] = test system: THLE or HepG2 cells, isolated mitochondria, BSEP; details: cited from earlier work; for Partition Hybrid HRM Score / Ro2 Hybrid HRM Score: In vitro Assay, ref Aleo 2019
[17] = plasma free fraction; cited from earlier work
HepaRG spheroids = assay: Combined HCI (HCS) and cellular ATP 3D assay in HepaRG spheroids; details: for AC50 / minimal effective concentration: Homo sapiens
[18] = read-out: Human plasma Cmax; total plasma Cmax.tot, median of 9 literature references; cited from earlier work
HepG2 cells [19] = details: In vitro Assay; ref Persson 2013; cited from earlier work
PHH spheroids = details: In vitro Assay; ref Vorrink 2018; cited from earlier work
[20] = In vitro Assay, ref O'Brien 2006
[21] = In vitro Assay, ref Khetani 2012
[22] = In vitro Assay, ref Porceddu 2012
[23] = Microtissue model structural based (HCI), combined HCS and ATP, MEC < 25 × Cmax.tot cut-off
[24] = In vitro Assay, ref Proctor 2017
[25] = Modeled in vitro assays (cytotoxicity, mitochondrial dysfunction, BSEP), ref Aleo et al. 2019

SMILES: CC(=O)Oc1ccccc1C(=O)O [aspirin]
DILI +VE (5-8), DILI -VE (-4) ([1]; ref Chen 2016): +VE | DILI severity category ([1]; ref Chen 2016): vLess-DILI-Concern | In vivo DILI ([2]; ref Khetani 2012): -VE | In vivo DILI ([2]; ref O'Brien 2006): +VE | In vivo DILI ([2]; ref Schadt 2015): -VE | In vivo DILI ([2]; ref Xu 2008): -VE | Structural based (HCI) (HepG2 cells [3]; [20]): +VE | RMPCC's (RMPCC's; [21]): -VE | Cellular toxicity (3T3 cells) [4]: -VE | Combined Assay [4]: -VE | GSH adduct HML [4]: -VE | Hepatocyte cellular toxicity [4]: -VE | MitoTox 3T3 [4]: -VE | TDI CYP3A4 [4]: -VE | hBSEP inhibition [4]: -VE | Structural based (HCI) (human hepatocytes): -VE | HMPCC's (hu-MPCC; [21]): -VE

hLiMTs <25x Avg Cmax ATP (hLiMTs [6]; hLiMTs, ATP endpoint, cut-off <25x Avg Cmax): +ve | hLiMTs <100x Avg Cmaxu ATP (hLiMTs [6]; hLiMTs, ATP endpoint, cut-off <100x Avg Cmaxu): +ve (<100x Avg Cmaxu) | hLiMTs <25x Avg Cmax HCS (hLiMTs [6]; hLiMTs, HCS endpoints, cut-off <25x Avg Cmax): +ve | hLiMTs <100x Avg Cmaxu HCS (hLiMTs [6]; hLiMTs, HCS endpoints, cut-off <100x Avg Cmaxu): +ve (<100x Avg Cmaxu) | hLiMTs <25x Avg Cmax All (hLiMTs [6]; hLiMTs, all endpoints (ATP and HCS), cut-off <25x Avg Cmax): +ve | hLiMTs Cmax max All (hLiMTs [6]; hLiMTs, all endpoints, Cmax max used): +ve | hLiMTs Cmax min All (hLiMTs [6]; hLiMTs, all endpoints, Cmax min used): +ve | hLiMTs <10 uM All (hLiMTs [6]; hLiMTs, all endpoints, cut-off <10 uM): -ve | hLiMTs <100x Avg Cmaxu All (hLiMTs [6]; hLiMTs, all endpoints, cut-off <100x Avg Cmaxu): +ve (<100x Avg Cmaxu) | Human plasma Cmax,u [9]: 12.190 µM | HepaRG <25x Avg Cmax ATP (HepaRG spheroids; HepaRG, ATP endpoint, cut-off <25x Avg Cmax): +ve | HepaRG <100x Avg Cmaxu ATP (HepaRG spheroids; HepaRG, ATP endpoint, cut-off <100x Avg Cmaxu): +ve (<100x Avg Cmaxu) | HepaRG <25x Avg Cmax HCS (HepaRG spheroids; HepaRG, HCS endpoints, cut-off <25x Avg Cmax): +ve | HepaRG <100x Avg Cmaxu HCS (HepaRG spheroids; HepaRG, HCS endpoints, cut-off <100x Avg Cmaxu): +ve (<100x Avg Cmaxu) | HepaRG <25x Avg Cmax All (HepaRG spheroids; HepaRG, all endpoints (ATP and HCS), cut-off <25x Avg Cmax): +ve | HepaRG Cmax max All (HepaRG spheroids; HepaRG, all endpoints, Cmax max used): +ve | HepaRG Cmax min All (HepaRG spheroids; HepaRG, all endpoints, Cmax min used): +ve | HepaRG <10 uM All (HepaRG spheroids; HepaRG, all endpoints, cut-off <10 uM): -ve | HepaRG <100x Avg Cmaxu All (HepaRG spheroids; HepaRG, all endpoints, cut-off <100x Avg Cmaxu): +ve (<100x Avg Cmaxu)
SMILES: NC(=O)N1c2ccccc2C=Cc2ccccc21 [carbamazepine, reference compound]
in vitro data EC2<=1x Cmax [5, 22]: +VE | in vitro data EC20<=2uM [5, 22]: +VE | DILI severity category (Chen et al. [2016]) ([1]; LTKB DILIrank category, ref Chen et al. 2016): Most | DILI severity category (Chen 2016) ([1]; human DILI classification, LTKB DILIrank, ref Chen et al. 2016): Most | DILI severity category ([1]; human DILI severity, ref Chen et al.): Most | DILI +VE (5-8), DILI -VE (-4) ([1]; ref Chen 2016): +VE | DILI severity category ([1]; ref Chen 2016): vMost-DILI-Concern | AC50 (hLiMTs [6]; read-out: ATP endpoint AC50): 145 µM | minimal effective concentration (hLiMTs [6]; read-out: ATP endpoint MEC): 73.6 µM | AC50 (hLiMTs [6]; read-out: HCS endpoint AC50): 226 µM | minimal effective concentration (hLiMTs [6]; read-out: HCS endpoint MEC): 109 µM | DILI prediction hLiMTs (HCS-MEC) (hLiMTs [6]; [23]): +VE (MEC < 25 × Cmax.tot cut-off) | Structural based (HCI) (HepG2 cells [7]; In vitro Assay, ref Tolosa 2012): +VE | DILI in vitro assay prediction, Tolosa (2012) (HepG2 cells [7]; Structural based (HCI), HepG2, ref Tolosa et al. 2012): +VE | Assigned DILI category ([2]; Chen et al. 2016 or literature alignment, ref Chen et al. 2016): 3 | In vivo DILI ([2]; […]): +VE | In vivo DILI ([2]; ref Albrecht 2019): +VE | In vivo DILI ([2]; ref Aleo 2019): +VE | In vivo DILI ([2]; ref Dawson 2012): +VE | In vivo DILI ([2]; ref Garside 2014): +VE | In vivo DILI ([2]; ref Gustafsson 2014): +VE | In vivo DILI ([2]; ref Porceddu 2012): +VE | In vivo DILI ([2]; ref Proctor 2017): +VE | In vivo DILI ([2]; ref Schadt 2015): +VE | In vivo DILI ([2]; ref Tolosa 2012): +VE | In vivo DILI ([2]; ref Williams 2019): +VE | Cytotoxicity HepG2 48 hrs (HepG2): +VE | Cytotoxicity PHH 48 hrs (PHH [8]): +VE | Inhibition of rBsep cutoff<1& cmax u>.2 (rBsep): -VE | Inhibition of rBsep cutoff<3 (rBsep): -VE | DILI in vitro assay prediction, Schadt (2015) ([4]; BSEP & Metabolism based, ref Schadt et al. 2015): +VE | Cellular toxicity (3T3 cells) [4]: -VE | Combined Assay [4]: +VE | GSH adduct HML [4]: +VE | Hepatocyte cellular toxicity [4]: -VE | MitoTox 3T3 [4]: -VE | TDI CYP3A4 [4]: -VE | hBSEP inhibition [4]: -VE | Bayesian Machine Learning DILI prediction, Williams (2019) ([10]; Bayesian modeling, ref Williams et al. 2019): +VE | Bayesian Machine Learning ([10]; In vitro Assay, ref Williams 2019): +VE | THLE-Null [11]: -VE | THLE-Null/3A4 [11]: -VE | hLiMTs ATP <100uM (hLiMTs [12]; [24]): -VE | hLiMTs/100xCmax, Proctor (2017) (hLiMTs [12]; hLiMTs, ATP, IC50 < 100 × Cmax.tot, ref Proctor et al. 2017): +VE (IC50 < 100 × Cmax.tot) | hLiMTs/100uM, Proctor (2017) (hLiMTs [12]; hLiMTs, ATP, IC50 threshold 100 µM, ref Proctor et al. 2017): -VE | PHH/100xCmax, Proctor (2017) (PHH [13]; 2D PHH, ATP, IC50 < 100 × Cmax.tot, ref Proctor et al. 2017): -VE | PHH/100uM, Proctor (2017) (PHH [13]; 2D PHH, ATP, IC50 threshold 100 µM, ref Proctor et al. 2017): -VE | PHH ATP <100uM (PHH [13]; [24]): -VE | Cluster 1-6 +VE Assay [14]: -VE | DILI Score (FDA) (1-8) [15]: 7 | Partition Hybrid HRM Score [16]: +VE | Ro2 Hybrid HRM Score [16]: +VE | Partition Hybrid HRM Score ≥4, Aleo (2019) [16, 25]: +VE (Partition Hybrid HRM Score ≥4) | Partition Hybrid HRM Score ≥8, Aleo (2019) [16, 25]: -VE | Rule of Two hybrid HRM Score ≥3, Aleo (2019) [16, 25]: +VE (Rule of Two hybrid HRM Score ≥3) | Rule of Two hybrid HRM Score ≥8, Aleo (2019) [16, 25]: -VE | fu [17]: 0.240 | AC50 (HepaRG spheroids; HepaRG, read-out: ATP endpoint AC50): 159 µM | minimal effective concentration (HepaRG spheroids; HepaRG, read-out: ATP endpoint MEC): 81.5 µM | AC50 (HepaRG spheroids; HepaRG, read-out: HCS endpoint AC50): 343 µM | minimal effective concentration (HepaRG spheroids; HepaRG, read-out: HCS endpoint MEC): 172 µM | DILI prediction HepaRG spheroids (HCS-MEC) (HepaRG spheroids; [23]): +VE (MEC < 25 × Cmax.tot cut-off) | Cmax [18]: 50.8 µM

SMILES: O=C(O)c1cn(C2CC2)c2cc(N3CCNCC3)c(F)cc2c1=O [ciprofloxacin]
in vitro data EC20<=2uM [5]: -VE | RMPCC's (RMPCC's): +VE | HMPCC's (hu-MPCC): +VE

SMILES: CCN(CC)CC(=O)Nc1c(C)cccc1C [lidocaine]
in vitro data EC20<=2uM [5, 22]: +VE | Structural based (HCI) (HepG2 cells [3]; [20]): +VE | Cluser analysis (HepG2 cells [19]): -VE | Structural based (HCI) (HepG2 cells [19]): -VE | RMPCC's (RMPCC's; [21]): +VE | HMPCC's (hu-MPCC; [21]): +VE

SMILES: Cn1cc[nH]c1=S [methimazole]
Inhibition of rBsep cutoff<1& cmax u>.2 (rBsep): -VE | Inhibition of rBsep cutoff<3 (rBsep): -VE | RMPCC's (RMPCC's; [21]): -VE | HMPCC's (hu-MPCC; [21]): -VE | Partition Hybrid HRM Score [16]: -VE | Ro2 Hybrid HRM Score [16]: -VE

SMILES: CC(=O)[C@H]1CC[C@H]2[C@@H]3CCC4=CC(=O)CC[C@]4(C)[C@H]3CC[C@]12C [progesterone]
DILI +VE (5-8), DILI -VE (-4) ([1]; ref Chen 2016): +VE | DILI severity category ([1]; ref Chen 2016): vLess-DILI-Concern | In vivo DILI ([2]; […]): -VE | In vivo DILI ([2]; ref Khetani 2012): +VE | In vivo DILI ([2]; ref Vorrink 2018): -VE | In vivo DILI ([2]; ref Xu 2008): +VE | hLiMTs ATP <20 x Cmax (PHH spheroids): -VE | RMPCC's (RMPCC's; [21]): -VE | Structural based (HCI) (human hepatocytes): -VE | HMPCC's (hu-MPCC; [21]): -VE

SMILES: C=C[C@H]1C[N@@]2CC[C@H]1C[C@H]2[C@H](O)c1ccnc2ccc(OC)cc12 [quinine]
DILI +VE (5-8), DILI -VE (-4) ([1]; in vivo): +VE | DILI severity category ([1]; in vivo): vLess-DILI-Concern | In vivo DILI ([2]; in vivo): +VE | Structural based (HCI) (HepG2 cells [3]): +VE | hLiMTs ATP <20 x Cmax (PHH spheroids): +VE (IC20 < 20 × Cmax.tot cut-off) | RMPCC's (RMPCC's): +VE | HMPCC's (hu-MPCC): +VE
